Experimental findings from ChEMBL document CHEMBL1156556, “Knowledge-based design of 7-azaindoles as selective B-Raf inhibitors” (Bioorg Med Chem Lett, 2008) are described below.

Calls of active or inactive are those of the source. The rule behind the calls is not given here.

The target of experiment [1] is Serine/threonine-protein kinase B-raf (Homo sapiens, UniProt P15056). Nature of the experiment: Inhibition of B-Raf by fluorescence anisotropy binding assay. (Polarisation of emitted light reports the rotation of a fluorescent probe.)
A further experiment deals with Cytochrome P450 2C9 (Homo sapiens, UniProt P11712). Nature of the experiment: Inhibition of CYP2C9. The class given is ADME.
The next experiment deals with Cytochrome P450 2D6 (Homo sapiens, UniProt P10635). Put plainly: Inhibition of CYP2D6. It is filed as ADME.
Experiment [2] addresses T1, Tyrosine-protein kinase ZAP-70 (Homo sapiens) (UniProt P43403).
T1 sequence (whole entry): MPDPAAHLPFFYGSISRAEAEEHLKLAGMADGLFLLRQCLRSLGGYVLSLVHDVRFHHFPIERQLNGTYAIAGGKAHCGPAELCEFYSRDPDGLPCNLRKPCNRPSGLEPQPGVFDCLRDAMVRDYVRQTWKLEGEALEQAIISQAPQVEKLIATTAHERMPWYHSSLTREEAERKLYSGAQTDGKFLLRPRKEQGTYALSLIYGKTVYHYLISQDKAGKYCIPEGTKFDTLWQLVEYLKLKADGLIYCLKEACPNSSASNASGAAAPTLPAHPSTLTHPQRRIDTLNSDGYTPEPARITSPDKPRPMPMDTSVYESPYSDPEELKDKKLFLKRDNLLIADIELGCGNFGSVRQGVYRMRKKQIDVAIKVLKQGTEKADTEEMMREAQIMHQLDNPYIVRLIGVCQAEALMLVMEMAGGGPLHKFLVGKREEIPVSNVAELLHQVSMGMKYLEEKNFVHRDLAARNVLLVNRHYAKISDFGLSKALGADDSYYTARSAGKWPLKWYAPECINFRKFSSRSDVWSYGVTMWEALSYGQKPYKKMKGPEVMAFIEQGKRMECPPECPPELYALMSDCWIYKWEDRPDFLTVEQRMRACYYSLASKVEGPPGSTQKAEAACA
Put plainly: Inhibition of ZAP70 at 30 uM.

The target in experiment [3] is Receptor tyrosine-protein kinase erbB-4 (Homo sapiens) (UniProt Q15303). Nature of the experiment: Inhibition of ERBB4 at 30 uM.
The target in experiment [4] is T2, Serine/threonine-protein kinase Sgk1 (Homo sapiens) (UniProt O00141).
T2 sequence (whole entry): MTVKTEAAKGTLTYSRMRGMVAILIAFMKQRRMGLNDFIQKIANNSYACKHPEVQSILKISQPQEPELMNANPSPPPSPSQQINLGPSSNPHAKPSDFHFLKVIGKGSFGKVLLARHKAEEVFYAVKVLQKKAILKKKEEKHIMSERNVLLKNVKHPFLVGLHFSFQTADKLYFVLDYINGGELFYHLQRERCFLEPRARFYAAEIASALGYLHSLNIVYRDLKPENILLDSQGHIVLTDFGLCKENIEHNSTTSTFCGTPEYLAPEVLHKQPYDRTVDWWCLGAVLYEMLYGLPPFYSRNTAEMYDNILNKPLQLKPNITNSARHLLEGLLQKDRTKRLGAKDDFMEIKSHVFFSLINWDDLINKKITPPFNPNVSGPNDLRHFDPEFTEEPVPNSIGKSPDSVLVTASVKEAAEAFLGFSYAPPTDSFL
Put plainly: Inhibition of SGK1 at 30 uM.

Experiment [5] deals with RAC-alpha serine/threonine-protein kinase (Homo sapiens) (UniProt P31749). Nature of the experiment: Inhibition of AKT1 at 30 uM.
In experiment [6] the target is Tyrosine-protein kinase BTK (Homo sapiens) (UniProt Q06187). Nature of the experiment: Inhibition of BTK at 30 uM.
Experiment [7] addresses Cyclin-dependent kinase 2 (Homo sapiens) (UniProt P24941). Nature of the experiment: Inhibition of CDK2 at 30 uM.
Experiment [8] deals with Glycogen synthase kinase-3 beta (Homo sapiens) (UniProt P49841). Put plainly: Inhibition of GSK3b at 30 uM.
Experiment [9] is described as follows: Selectivity for B-Raf over VEGFR2.
In experiment [10] the target is Mitogen-activated protein kinase 1 (Homo sapiens) (UniProt P28482). Put plainly: Inhibition of ERK2 at 30 uM.
Experiment [11] has as its target T3, Inhibitor of nuclear factor kappa-B kinase subunit beta (Homo sapiens) (UniProt O14920).
T3 sequence (whole entry): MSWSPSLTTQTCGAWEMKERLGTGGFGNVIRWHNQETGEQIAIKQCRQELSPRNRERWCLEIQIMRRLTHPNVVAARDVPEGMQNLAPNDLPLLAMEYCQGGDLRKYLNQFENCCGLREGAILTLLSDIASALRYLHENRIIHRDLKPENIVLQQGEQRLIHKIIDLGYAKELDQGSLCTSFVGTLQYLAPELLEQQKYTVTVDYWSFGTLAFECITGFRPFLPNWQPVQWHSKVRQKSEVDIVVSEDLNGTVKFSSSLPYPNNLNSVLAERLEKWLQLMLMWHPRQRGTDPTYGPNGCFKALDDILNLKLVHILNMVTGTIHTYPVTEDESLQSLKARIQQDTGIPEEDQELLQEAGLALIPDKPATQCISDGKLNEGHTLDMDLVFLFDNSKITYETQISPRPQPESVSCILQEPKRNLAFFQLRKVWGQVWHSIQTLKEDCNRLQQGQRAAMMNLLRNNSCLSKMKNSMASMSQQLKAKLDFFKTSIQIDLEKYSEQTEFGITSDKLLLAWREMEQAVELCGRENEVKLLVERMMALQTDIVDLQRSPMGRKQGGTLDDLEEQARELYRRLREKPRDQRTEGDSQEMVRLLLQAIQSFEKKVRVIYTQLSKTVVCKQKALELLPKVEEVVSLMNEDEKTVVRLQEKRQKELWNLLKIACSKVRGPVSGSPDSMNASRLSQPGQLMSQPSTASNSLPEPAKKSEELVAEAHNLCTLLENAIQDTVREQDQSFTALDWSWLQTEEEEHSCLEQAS
Put plainly: Inhibition of IKK2 at 30 uM.

In experiment [12] the target is Insulin-like growth factor 1 receptor (Homo sapiens) (UniProt P08069). Nature of the experiment: Inhibition of IGF1R at 30 uM.
Experiment [13] can be described thus: Selectivity for B-Raf over c-Met.
The target of experiment [14] is Tyrosine-protein kinase SYK (Homo sapiens) (UniProt P43405). Nature of the experiment: Inhibition of SYK at 30 uM.

Chain of Serine/threonine-protein kinase B-raf (P15056 whole entry): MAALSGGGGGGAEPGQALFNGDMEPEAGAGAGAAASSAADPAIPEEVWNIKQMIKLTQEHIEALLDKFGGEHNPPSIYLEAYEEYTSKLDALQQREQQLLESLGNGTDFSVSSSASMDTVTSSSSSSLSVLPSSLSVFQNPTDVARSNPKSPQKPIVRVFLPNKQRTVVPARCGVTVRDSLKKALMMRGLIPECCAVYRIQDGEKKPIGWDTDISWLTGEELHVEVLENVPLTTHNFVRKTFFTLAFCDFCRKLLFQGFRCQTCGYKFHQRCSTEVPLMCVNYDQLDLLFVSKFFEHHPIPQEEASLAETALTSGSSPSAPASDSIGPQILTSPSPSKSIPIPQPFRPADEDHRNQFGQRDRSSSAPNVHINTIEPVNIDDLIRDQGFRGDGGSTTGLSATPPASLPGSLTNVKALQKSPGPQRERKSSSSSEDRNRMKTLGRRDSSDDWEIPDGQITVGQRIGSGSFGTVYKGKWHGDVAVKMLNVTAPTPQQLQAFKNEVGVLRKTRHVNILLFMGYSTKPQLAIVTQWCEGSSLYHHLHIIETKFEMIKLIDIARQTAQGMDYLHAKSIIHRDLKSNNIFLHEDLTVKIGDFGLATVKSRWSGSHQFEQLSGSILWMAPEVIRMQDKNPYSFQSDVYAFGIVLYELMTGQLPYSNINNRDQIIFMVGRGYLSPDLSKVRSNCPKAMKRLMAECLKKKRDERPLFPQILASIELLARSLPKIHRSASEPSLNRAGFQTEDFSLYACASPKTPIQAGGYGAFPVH
Chain of Cytochrome P450 2C9 (P11712 whole entry): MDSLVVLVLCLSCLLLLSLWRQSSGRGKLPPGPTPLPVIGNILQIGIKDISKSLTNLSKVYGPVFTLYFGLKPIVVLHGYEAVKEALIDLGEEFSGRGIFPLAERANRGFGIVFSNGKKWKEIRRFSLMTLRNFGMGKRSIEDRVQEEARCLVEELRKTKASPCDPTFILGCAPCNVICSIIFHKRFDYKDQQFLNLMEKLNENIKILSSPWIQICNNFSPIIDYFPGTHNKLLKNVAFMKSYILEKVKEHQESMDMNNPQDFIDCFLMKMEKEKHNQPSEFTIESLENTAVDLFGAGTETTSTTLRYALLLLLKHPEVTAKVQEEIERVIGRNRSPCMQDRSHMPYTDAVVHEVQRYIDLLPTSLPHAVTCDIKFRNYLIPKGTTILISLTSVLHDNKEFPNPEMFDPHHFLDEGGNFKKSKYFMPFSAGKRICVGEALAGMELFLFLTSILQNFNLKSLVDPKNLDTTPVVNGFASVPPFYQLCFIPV
Chain of Cytochrome P450 2D6 (P10635 whole entry): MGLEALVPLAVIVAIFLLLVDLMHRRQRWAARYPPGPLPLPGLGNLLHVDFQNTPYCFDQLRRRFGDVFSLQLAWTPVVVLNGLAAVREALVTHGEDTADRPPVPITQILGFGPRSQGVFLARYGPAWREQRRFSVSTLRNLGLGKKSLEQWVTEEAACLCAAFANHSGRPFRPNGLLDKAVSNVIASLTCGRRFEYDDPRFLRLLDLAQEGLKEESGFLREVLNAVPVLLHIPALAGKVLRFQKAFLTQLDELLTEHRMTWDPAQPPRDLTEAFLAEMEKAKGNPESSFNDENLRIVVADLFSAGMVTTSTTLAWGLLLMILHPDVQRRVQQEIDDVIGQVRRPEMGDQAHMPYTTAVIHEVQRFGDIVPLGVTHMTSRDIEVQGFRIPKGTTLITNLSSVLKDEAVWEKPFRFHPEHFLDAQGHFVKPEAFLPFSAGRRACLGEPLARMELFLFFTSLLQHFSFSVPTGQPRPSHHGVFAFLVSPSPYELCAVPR
Chain of RAC-alpha serine/threonine-protein kinase (Homo sapiens) (P31749 whole entry): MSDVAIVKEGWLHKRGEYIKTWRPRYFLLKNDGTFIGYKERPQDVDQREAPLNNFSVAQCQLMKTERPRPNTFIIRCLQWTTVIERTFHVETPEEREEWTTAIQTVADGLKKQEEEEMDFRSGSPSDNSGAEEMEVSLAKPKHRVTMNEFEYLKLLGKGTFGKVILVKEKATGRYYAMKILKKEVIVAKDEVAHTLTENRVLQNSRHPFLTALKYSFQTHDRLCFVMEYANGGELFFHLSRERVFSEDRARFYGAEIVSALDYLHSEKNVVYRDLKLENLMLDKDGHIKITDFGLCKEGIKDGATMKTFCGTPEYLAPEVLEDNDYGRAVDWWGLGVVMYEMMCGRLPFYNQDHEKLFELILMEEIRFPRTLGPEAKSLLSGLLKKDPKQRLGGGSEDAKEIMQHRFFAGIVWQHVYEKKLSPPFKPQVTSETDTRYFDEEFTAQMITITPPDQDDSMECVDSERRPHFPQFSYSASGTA
Chain of Glycogen synthase kinase-3 beta (Homo sapiens) (P49841 whole entry, looked up): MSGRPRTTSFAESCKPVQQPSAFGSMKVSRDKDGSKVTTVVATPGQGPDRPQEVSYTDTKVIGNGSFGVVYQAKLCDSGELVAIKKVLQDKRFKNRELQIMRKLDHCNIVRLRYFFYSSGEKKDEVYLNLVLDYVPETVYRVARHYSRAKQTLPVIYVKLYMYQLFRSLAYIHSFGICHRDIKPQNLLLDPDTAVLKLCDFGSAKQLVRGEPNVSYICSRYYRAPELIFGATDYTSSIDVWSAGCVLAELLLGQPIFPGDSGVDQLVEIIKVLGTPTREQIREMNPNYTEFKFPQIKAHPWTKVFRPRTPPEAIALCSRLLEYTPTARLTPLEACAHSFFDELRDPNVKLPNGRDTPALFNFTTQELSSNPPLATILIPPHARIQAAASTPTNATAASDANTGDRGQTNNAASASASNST
Chain of Receptor tyrosine-protein kinase erbB-4 (Homo sapiens) (Q15303 whole entry): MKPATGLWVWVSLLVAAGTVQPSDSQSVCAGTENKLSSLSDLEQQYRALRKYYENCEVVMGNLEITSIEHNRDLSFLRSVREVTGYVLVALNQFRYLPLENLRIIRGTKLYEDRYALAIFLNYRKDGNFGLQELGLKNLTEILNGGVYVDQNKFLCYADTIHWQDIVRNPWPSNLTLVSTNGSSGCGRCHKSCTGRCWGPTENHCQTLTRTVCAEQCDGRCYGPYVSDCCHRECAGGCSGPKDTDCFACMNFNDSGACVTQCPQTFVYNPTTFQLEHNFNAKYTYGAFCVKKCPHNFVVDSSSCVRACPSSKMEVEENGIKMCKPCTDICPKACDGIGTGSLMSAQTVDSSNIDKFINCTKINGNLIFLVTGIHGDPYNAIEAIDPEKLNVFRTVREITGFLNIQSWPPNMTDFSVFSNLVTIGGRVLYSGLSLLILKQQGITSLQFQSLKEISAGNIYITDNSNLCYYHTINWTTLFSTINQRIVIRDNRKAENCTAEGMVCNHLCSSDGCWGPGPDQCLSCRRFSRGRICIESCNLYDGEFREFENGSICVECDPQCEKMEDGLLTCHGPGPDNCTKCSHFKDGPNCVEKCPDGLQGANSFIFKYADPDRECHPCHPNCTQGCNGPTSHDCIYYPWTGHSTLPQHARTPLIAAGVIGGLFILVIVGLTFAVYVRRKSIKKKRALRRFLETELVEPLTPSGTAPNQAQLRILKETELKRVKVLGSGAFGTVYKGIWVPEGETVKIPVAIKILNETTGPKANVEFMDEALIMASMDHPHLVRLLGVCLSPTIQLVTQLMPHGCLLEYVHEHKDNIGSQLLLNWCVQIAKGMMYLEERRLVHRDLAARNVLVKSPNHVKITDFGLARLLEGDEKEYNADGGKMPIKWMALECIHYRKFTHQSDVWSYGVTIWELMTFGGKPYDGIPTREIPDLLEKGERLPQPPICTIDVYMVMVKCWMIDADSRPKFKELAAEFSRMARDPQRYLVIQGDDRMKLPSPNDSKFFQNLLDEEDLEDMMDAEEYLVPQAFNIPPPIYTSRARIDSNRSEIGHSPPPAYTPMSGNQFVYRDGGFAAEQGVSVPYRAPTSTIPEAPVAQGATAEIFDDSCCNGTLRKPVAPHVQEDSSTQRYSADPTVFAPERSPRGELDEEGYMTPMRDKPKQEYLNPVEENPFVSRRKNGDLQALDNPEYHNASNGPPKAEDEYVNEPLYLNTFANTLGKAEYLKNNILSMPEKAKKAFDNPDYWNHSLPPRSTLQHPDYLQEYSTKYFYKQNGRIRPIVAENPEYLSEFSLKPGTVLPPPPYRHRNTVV
Chain of Mitogen-activated protein kinase 1 (Homo sapiens) (P28482 whole entry): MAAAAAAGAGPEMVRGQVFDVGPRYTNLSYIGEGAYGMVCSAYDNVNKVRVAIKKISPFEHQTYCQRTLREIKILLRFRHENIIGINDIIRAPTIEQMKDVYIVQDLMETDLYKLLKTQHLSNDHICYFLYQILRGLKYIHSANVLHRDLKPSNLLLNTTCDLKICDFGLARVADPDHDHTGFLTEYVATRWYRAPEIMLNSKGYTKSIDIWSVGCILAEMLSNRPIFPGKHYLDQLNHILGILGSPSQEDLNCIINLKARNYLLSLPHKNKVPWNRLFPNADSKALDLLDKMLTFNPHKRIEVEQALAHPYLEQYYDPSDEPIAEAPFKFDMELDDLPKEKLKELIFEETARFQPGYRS
Chain of Tyrosine-protein kinase BTK (Homo sapiens) (Q06187 whole entry): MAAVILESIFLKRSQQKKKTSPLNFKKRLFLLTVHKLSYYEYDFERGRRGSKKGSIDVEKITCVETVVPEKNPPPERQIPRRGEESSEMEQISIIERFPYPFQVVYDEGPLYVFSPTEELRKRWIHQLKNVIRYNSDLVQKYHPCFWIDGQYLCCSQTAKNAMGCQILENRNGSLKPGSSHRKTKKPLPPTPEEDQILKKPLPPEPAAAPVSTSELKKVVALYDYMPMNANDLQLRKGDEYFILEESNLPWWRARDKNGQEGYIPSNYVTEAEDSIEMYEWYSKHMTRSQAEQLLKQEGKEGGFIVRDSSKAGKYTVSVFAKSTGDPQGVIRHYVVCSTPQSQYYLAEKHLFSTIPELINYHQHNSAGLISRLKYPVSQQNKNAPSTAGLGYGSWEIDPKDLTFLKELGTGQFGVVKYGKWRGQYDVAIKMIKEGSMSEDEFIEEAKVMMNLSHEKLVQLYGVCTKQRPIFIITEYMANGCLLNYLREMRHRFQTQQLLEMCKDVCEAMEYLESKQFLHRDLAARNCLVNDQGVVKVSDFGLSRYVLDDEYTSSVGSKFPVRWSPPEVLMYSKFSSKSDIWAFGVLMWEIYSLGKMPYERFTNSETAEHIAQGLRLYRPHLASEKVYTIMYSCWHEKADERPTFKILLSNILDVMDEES

For the compound `CCOC(=O)c1cc2c(-c3cn(CC)nc3-c3cccc(NC(=O)Nc4ccccc4)c3)ccnc2[nH]1`, the IC50 (as a rule, the concentration needed to halve the response being measured) in [1] stood at 33.9 nM.

`CCn1cc(-c2ccnc3[nH]ccc23)c(-c2cccc(NC(=O)NC3CCCCC3)c2)n1` gave an IC50 in experiment [1] of 41.7 nM.

Turning to `CCn1cc(-c2ccnc3[nH]ccc23)c(-c2cccc(NC(=O)Nc3cccc(OC)c3)c2)n1`, the IC50 against Cytochrome P450 2C9 is 316 nM; in [1], 2.1 nM; against Cytochrome P450 2D6, 200 nM.

With `CCn1cc(-c2ccnc3[nH]ccc23)c(-c2cccc(NC(=O)Nc3c(F)cccc3F)c2)n1`, in experiment [1], the IC50 is 25.7 nM.

In the case of `CCn1cc(-c2ccnc3[nH]ccc23)c(-c2cccc(NC(=O)Nc3ccc(Cl)c(C(F)(F)F)c3)c2)n1`, the 50% inhibitory concentration (IC50) in experiment [1] is 5.4 nM.

For the compound `CCn1cc(-c2ccnc3[nH]cc(Br)c23)c(-c2cccc(NC(=O)Nc3ccccc3)c2)n1`, the IC50 in [1] came to 79.4 nM.

`CCn1cc(-c2ccnc3[nH]ccc23)c(-c2cccc(NC(=O)Nc3ccc(C(F)(F)F)cc3)c2)n1`: the IC50 was 1260 nM against Cytochrome P450 2C9 and 5010 nM on Cytochrome P450 2D6. For the same compound, the outcome in [2], in experiment [3], in experiment [4], in [5], in experiment [6] and in experiment [7] was inactive. Further, the result in [8], in experiment [10], in [11], in experiment [12] and in [14] was inactive. Besides, the fold change (FC) in experiment [9] and in experiment [13] was 100 throughout.

On to `CCn1cc(-c2ccnc3[nH]c(C(=O)O)cc23)c(-c2cccc(NC(=O)Nc3ccccc3)c2)n1`, for which the IC50 in experiment [1] was determined as 45.7 nM.

With `CCn1cc(-c2ccnc3[nH]ccc23)c(-c2cccc(NC(=O)Nc3cc(C(F)(F)F)ccc3F)c2)n1`, in [1], the IC50 was 3.9 nM.
